Test results published in patent publication US8945597B2, “Botanical insecticides” (priority 2012, dated 2015).

Legend:
pest insects = assay: Insecticidal properties of terpenes/terpenoids (test not described); conditions: tested and proved; test details not given
[1] = system: Aphid nymphs (Aphis medicagini); assay: Insecticidal efficacy test against aphid nymphs (leaf disc dip); type: in vivo; conditions: concentration 20 mg/L; leaf disc dipped 5 seconds; mortality after 24 hours
Description: Insecticidal Efficacy Test Against Aphid Nymphs (Aphis medicagini)
Take the first preferred embodiment, diluted in water in two different concentrations, A with 1% weight content of active ingredients, B with 0.1% active ingredients. Vicia leaf cut into round disc in 2 cm diameter, back up placed on a small cotton ball, and then mounted in a Petri dish, 5 ml water is added. Mature aphids are transferred onto the leaf disc to hatch aphid nymphs. Mature aphids are removed after 24 hours and 20-30 aphid nymphs are left on the leave disc and continue to culture for one day. The leave disc with aphid nymphs is merged into solution A and B for 5 seconds, excessive fluid on the leaf surface is absorbed by paper tower. Leaf disc is then mounted back to the cotton ball for another 24 hours observation. Use Nitenpyram 20 mg/L for comparison and water as control.

[2] = system: planthopper nymphs (nilaparvata legen); assay: Insecticidal efficacy test against planthopper nymphs (POTTER sprayer); type: in vivo; conditions: concentration 20 mg/L; sprayed; mid 3rd instar nymphs; mortality after 72 hours
Description: Insecticidal efficacy test against planthopper nymphs (nilaparvata legen). Some rice seedling leaves are mounted with white quartz sand in a Petri dish with 5 cm diameter containing 5 ml water. Planthoppers nymphs of mid 3rd instar were anesthetized by CO2. 20-30 anesthetized nymphs are transferred to each Petri dish and placed under the POTTER sprayer. Same amount of testing chemical is sprayed into each Petri dish and covered with transparent plastic cup. Use nitenpyram 20 mg/L for comparison and water as control.

| Compound | insecticidal properties (pest insects) | MOTALITY % [1] [%] | MOTALITY % [2] [%] |
| --- | --- | --- | --- |
| C[C@@H]1CC[C@H]2C(C)(C)C3C[C@@]12CC[C@@]3(C)O [Embodiment 8-epicedrol, 8-epicedrol] | significant insecticidal properties | – | – |
| CC12CCC(CC1)C(C)(C)O2 [1,8-cineole] | significant insecticidal properties | – | – |
| C=CCS[S@@+]([O-])CC=C (stereo in doubt) [allicin] | significant insecticidal properties | – | – |
| CCN(Cc1ccc(Cl)nc1)/C(=C/[N+](=O)[O-])NC [Nitenpyram] | – | 100 | 100 |
| ocimene | significant insecticidal properties | – | – |
| Cc1ccc(C(C)C)cc1 [p-cymene] | significant insecticidal properties | – | – |
| pinene | significant insecticidal properties | – | – |
| CC(C)[C@@H]1CC[C@@H](C)C[C@H]1O [3-p-menthanol] | significant insecticidal properties | – | – |
| C=C1CC/C=C(\C)CC[C@@H]2[C@@H]1CC2(C)C [β-caryophyllene] | significant insecticidal properties | – | – |
